What was measured:
[1] = molecular target: T1, human A1AR (Homo sapiens, UniProt P30542); details: [3H]-CCPA displacement, human A1AR in CHO cells; geometric mean with 95% confidence limits; read-out: Ki A1; cited from earlier work
T1 construct: expressed in transfected cells; host or cells: CHO cells, crude membrane fractions
T1 sequence (P30542 1-326): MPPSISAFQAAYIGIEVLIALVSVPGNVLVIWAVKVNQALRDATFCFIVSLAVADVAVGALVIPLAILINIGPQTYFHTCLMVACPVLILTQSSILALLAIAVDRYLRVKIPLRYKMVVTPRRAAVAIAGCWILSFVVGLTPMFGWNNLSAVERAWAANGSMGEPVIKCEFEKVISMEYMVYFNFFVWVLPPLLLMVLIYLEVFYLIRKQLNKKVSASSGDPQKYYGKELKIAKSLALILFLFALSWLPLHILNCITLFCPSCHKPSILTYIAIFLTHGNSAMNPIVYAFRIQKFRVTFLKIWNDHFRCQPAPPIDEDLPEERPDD

[2] = molecular target: T2, human A2AAR (Homo sapiens, UniProt P29274); details: [3H]-NECA displacement, human A2AAR in CHO cells; geometric mean with 95% confidence limits; read-out: Ki A2A; cited from earlier work
T2 construct: expressed in transfected cells; host or cells: CHO cells, crude membrane fractions
T2 sequence (P29274 whole entry): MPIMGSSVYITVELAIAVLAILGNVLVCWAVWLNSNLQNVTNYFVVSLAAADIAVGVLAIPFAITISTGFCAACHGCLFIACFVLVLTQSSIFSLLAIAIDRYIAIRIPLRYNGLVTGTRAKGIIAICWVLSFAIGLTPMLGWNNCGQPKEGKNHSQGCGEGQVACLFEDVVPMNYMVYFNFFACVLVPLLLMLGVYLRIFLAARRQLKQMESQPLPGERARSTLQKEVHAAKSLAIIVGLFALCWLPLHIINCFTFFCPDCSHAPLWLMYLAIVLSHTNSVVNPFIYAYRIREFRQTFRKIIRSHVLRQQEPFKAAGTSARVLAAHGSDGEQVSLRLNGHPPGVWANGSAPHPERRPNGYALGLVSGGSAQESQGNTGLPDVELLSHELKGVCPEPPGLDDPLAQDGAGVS

[3] = molecular target: T3, human A3AR (Homo sapiens, UniProt P0DMS8); details: [3H]-NECA displacement, human A3AR in CHO cells; geometric mean with 95% confidence limits; read-out: Ki A3; cited from earlier work
T3 construct: expressed in transfected cells; host or cells: CHO cells, crude membrane fractions
T3 sequence (P0DMS8 1-318): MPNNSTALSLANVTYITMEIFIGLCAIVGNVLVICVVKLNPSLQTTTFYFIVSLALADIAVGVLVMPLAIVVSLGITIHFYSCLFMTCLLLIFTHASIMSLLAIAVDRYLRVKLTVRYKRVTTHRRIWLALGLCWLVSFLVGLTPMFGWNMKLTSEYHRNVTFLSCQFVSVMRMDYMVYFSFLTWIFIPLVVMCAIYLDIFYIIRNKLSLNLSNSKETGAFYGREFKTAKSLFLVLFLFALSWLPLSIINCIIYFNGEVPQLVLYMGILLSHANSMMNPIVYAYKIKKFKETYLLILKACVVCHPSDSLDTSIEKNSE

[4] = tested on: tacrine-induced tremulous jaw movements; assay: Tacrine-induced tremulous jaw movements; type: in vivo, rat; details: rats, 5 mg/kg i.p. pretreatment, tacrine 2.5 mg/kg i.p.; 60 min, versus vehicle
Method: Rats were divided into two groups and treated with vehicle or 4 (5 mg/kg. i.p.). Tacrine (2.5 mg/kg i.p.) was administered 20 min after vehicle or 4, and the number of TJMs and bursts of TJMs (i.e., episodes of consecutive TJMs) were measured for 60 min. TJMs were defined as vertical deflections of the lower jaw not directed at a particular stimulus. Yawns, tongue protrusions, and stereotypies, such as grooming, were not scored. In the tacrine-induced TJM tests, the mean and S.E.M of the number of TJMs and bursts were calculated. Significant differences between groups were evaluated by Student’s t-test.

Compound	Ki [1] [nM]	Ki [2] [nM]	Ki [3] [nM]	Number of tremor bursts induced by tacrine [4]	Number of tremulous jaw movements induced by tacrine [4]
CCn1c(Br)nc2c(N)nc(OCCc3ccccc3)nc21 [Compound 1, 8-bromo-9-ethyl-2-phenetoxyadenine]	23	1.7	1090	–	–
CCOc1nc2c(N)nc(OCCc3ccccc3)nc2n1CC [Compound 4, 8-ethoxy-9-ethyl-2-phenethoxyadenine]	–	–	–	but not tremor bursts	significantly reduced

Source: paper PMC11898488, “A2A Adenosine Receptor Antagonists and Their Efficacy in Rat Models of Parkinson’s Disease” (Cells, 2025)
